Key:
[1] = tested on: mRNA expressed from the genes (A) to (D) in rat liver; experiment: Behavior of genes (mRNA expression level, oligo-DNA microarray) in rat liver after 28-day oral administration; format: in vivo; settings: mRNA vs vehicle control group
In short: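 Rat liver RNA after 28 days of daily gavage dosing (male F344, 5 weeks old, four per group). A change reaching 1.5-fold, or 1/1.5, against solvent control scores as significant; opposite direction versus another carcinogen scores as not significant.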

[2] = tested on: liver; settings: classification of the substance (Cr+/Cr−); cited from earlier work
[3] = tested on: rodent; settings: classification of the substance (C+/C−); cited from earlier work
[4] = classification of the substance (M+/M−); cited from earlier work
[5] = gene group (A), Unigene No. Rn.167075
[6] = gene group (C), Unigene No. Rn.120914

CCOC(=O)C(C)(C)Oc1ccc(Cl)cc1 [TS001, Clofibrate]
M−: Mutagenicity by Ames test [4]
C+: Carcinogenicity [3]
−: Behavior of gene caused by administration of chemical substance, Gene No. 4846 ([1]; gene group (A), Unigene No. Rn.144554) | Behavior of gene caused by administration of chemical substance, Gene No. 4218 [1, 5] | Behavior of gene caused by administration of chemical substance, Gene No. 5600 ([1]; gene group (A), Unigene No. Rn.9836) | Behavior of gene caused by administration of chemical substance, Gene No. 1334 [1, 6] | Behavior of gene caused by administration of chemical substance, Gene No. 6620 [1, 6] | Behavior of gene caused by administration of chemical substance, Gene No. 6303 ([1]; gene group (C), Unigene No. Rn.123063) | Behavior of gene caused by administration of chemical substance, Gene No. 5878 ([1]; gene group (C), Unigene No. Rn.143213) | Behavior of gene caused by administration of chemical substance, Gene No. 1131 ([1]; gene group (C), Unigene No. Rn.144946) | Behavior of gene caused by administration of chemical substance, Gene No. 1562 ([1]; gene group (C), Unigene No. Rn.14744) | Behavior of gene caused by administration of chemical substance, Gene No. 1741 ([1]; gene group (C), Unigene No. Rn.1647) | Behavior of gene caused by administration of chemical substance, Gene No. 6026 ([1]; gene group (C), Unigene No. Rn.167685) | Behavior of gene caused by administration of chemical substance, Gene No. 154 ([1]; gene group (C), Unigene No. Rn.185941) | Behavior of gene caused by administration of chemical substance, Gene No. 1993 ([1]; gene group (C), Unigene No. Rn.18728) | Behavior of gene caused by administration of chemical substance, Gene No. 2494 ([1]; gene group (C), Unigene No. Rn.23969) | Behavior of gene caused by administration of chemical substance, Gene No. 2546 ([1]; gene group (C), Unigene No. Rn.24561) | Behavior of gene caused by administration of chemical substance, Gene No. 3776 ([1]; gene group (C), Unigene No. Rn.43232) | Behavior of gene caused by administration of chemical substance, Gene No. 3929 ([1]; gene group (C), Unigene No. Rn.4620) | Behavior of gene caused by administration of chemical substance, Gene No. 1119 ([1]; gene group (C), Unigene No. Rn.9757) | Behavior of gene caused by administration of chemical substance, Gene No. 5634 ([1]; gene group (C), Unigene No. Rn.9862) | Behavior of gene caused by administration of chemical substance, Gene No. 5726 ([1]; gene group (D), Unigene No. Rn.9939)
+: Behavior of gene caused by administration of chemical substance, Gene No. 2026 [1, 5] | Behavior of gene caused by administration of chemical substance, Gene No. 6182 ([1]; gene group (A), Unigene No. Rn.5834) | Behavior of gene caused by administration of chemical substance, Gene No. 1494 ([1]; gene group (B), Unigene No. Rn.1430) | Behavior of gene caused by administration of chemical substance, Gene No. 2045 ([1]; gene group (B), Unigene No. Rn.19329) | Behavior of gene caused by administration of chemical substance, Gene No. 2203 ([1]; gene group (B), Unigene No. Rn.21240) | Behavior of gene caused by administration of chemical substance, Gene No. 533 ([1]; gene group (C), Unigene No. Rn.106184) | Behavior of gene caused by administration of chemical substance, Gene No. 725 ([1]; gene group (C), Unigene No. Rn.108075) | Behavior of gene caused by administration of chemical substance, Gene No. 1163 ([1]; gene group (C), Unigene No. Rn.11766) | Behavior of gene caused by administration of chemical substance, Gene No. 4973 ([1]; gene group (C), Unigene No. Rn.118529) | Behavior of gene caused by administration of chemical substance, Gene No. 4095 ([1]; gene group (C), Unigene No. Rn.119024) | Behavior of gene caused by administration of chemical substance, Gene No. 893 ([1]; gene group (C), Unigene No. Rn.164817) | Behavior of gene caused by administration of chemical substance, Gene No. 813 ([1]; gene group (C), Unigene No. Rn.201760) | Behavior of gene caused by administration of chemical substance, Gene No. 6742 ([1]; gene group (C), Unigene No. Rn.9779)
Cr+: Liver carcinogenicity [2]
